Laboratory results taken from US4444773A, “Substituted thiazolo[3,2-a]pyrimidines and process for their preparation” (Farmitalia Carlo Erba S.p.A., priority 1981, dated 1984).

What was measured:
[1] = acute toxicity (LD50) in the mouse; conditions: in vivo, po, per os, single administration of increasing doses, measured on the seventh day, read-out: approximate acute toxicity (LD50)
Experimental: In view of their high therapeutic index, the compounds of the invention can be used safely in medicine. For example, the approximate acute toxicity (LD50) of the compounds 7-trans-[2-(3-pyridyl)-ethenyl]-5H-thiazolo[3,2-a]pyrimidine-5-one and 2-chloro-7-trans-[2-(3-pyridyl)-ethenyl]-5H-thiazolo[3,2-a]pyrimidine-5-one in the mouse determined by single administration of increasing doses and measured on the seventh day of treatment, is higher than 800 mg/kg per os. Analogous toxicity data have been found for other compounds of the invention.

restraint ulcers in rats = test: inhibition of restraint ulcers in rats (Bonfils method); type: in vivo; conditions: po; approximate ED50; rat, per os one hour before immobilization, lesions counted 4 hours after immobilization; read-out: Antiulcerogenic activity p.o. ED50
Description: The compounds of the present invention are active on the gastroenteric system, in particular they are endowed with anti-ulcerogenic and gastric anti-secretory activity and are therefore useful in therapy, for example in the prevention and treatment of peptic, e.g. duodenal, gastric and esophageal, ulcers and to inhibit gastric acid secretion. The compounds of the invention are also useful for reducing the undesiderable gastrointestinal side-effects resulting from systemic administration of anti-inflammatory prostaglandin synthetase inhibitors and may be, therefore, used for this purpose in association with them. The anti-ulcerogenic activity of the compounds of the invention is shown, e.g., by the fact that they are active in the test of the inhibition of restraint ulcers in rats, according to the method of Bonfils et al., (Therapie, 1960, 5, 1096; Jap. J. Pharmac. 1945, 43, 5). Six Sprague-Dawley male rats (100-120 g) fasted 24 hours were used for the experiment: a square flexible small-mesh wire netting was used for the immobilization and 4 hours after the immobilization the rats were sacrificed, their stomachs were removed and the lesions counted under a dissecting microscope. The tested compounds were administered per os (p.o.) one hour before the immobilization.

[2] = system: phenylquinone induced writhing; test: phenylquinone induced writhing test (Siegmund); type: in vivo, mice; conditions: Mus musculus; approximate ED25; printed 'in the rat', after oral administration; read-out: analgesic activity ED25, phenylquinone-induced writhing test
Description: (§1) A. Winter et al. (J. Pharmac. Exp. Therap. 1963, 141, 369) and P. Lence (Arch. Int. Pharmacodyn., 1962, 136, 237), and (B) the Reversed Passive Arthus Reaction (RPAR) in rat paw, induced by the interaction of antigen and antibody resulting in the formation of precipitating immune complex, followed by fixation of complement and accumulation of polymorphonuclear leucocytes at a focal point (D. K. GEMMELL, J. COTTNEY and A. J. LEWIS, Agents and Actions 9/1 pag. 107, 1979). The compounds of this invention are also endowed with analgesic activity. The analgesic activity was assessed, for example, by means of phenylquinone induced writhing test in mice according to Siegmund [Siegmund et al. Proc. Soc. Exper. Biol. Med., 95, 729 (1957)].
With regard to the analgesic activity, one of the preferred compounds of this invention is, for example, the compound 2-chloro-7-trans-[2-(3-pyridyl)-ethenyl]-5H-thiazolo[3,2-a]pyrimidine-5-one, wich has an approximate ED25 value of 25 mg/kg in the phenylquinone-induced writhing test in the rat, after oral administration. Furthermore the compounds of this invention are effective in the inhibiting the TXA2 synthetase in vivo and may be therefore useful in therapy, for example, in the prevention and treatment of all kinds of thrombosis, peripheral vasculopaties and coronary artery diseases.

[3] = system: Reversed Passive Arthus Reaction (RPAR); test: Reversed Passive Arthus Reaction (RPAR) in rat paw; type: in vivo; conditions: approximate ED25, oral administration, read-out: Anti-inflammatory activity RPAR reaction ED25
Description: as §1
(§2) Therefore the compounds of the invention may be used in therapy to treat pains and inflammatory processes, such as for example, rheumatoid arthritis and osteoarthrosis. The following Tables II and III show, for example, the approximate ED25 values of the anti-inflammatory activity in the above tests in the rat after oral administration for some compounds of this invention: […]

[4] = system: carrageenin induced oedema; test: carrageenin induced oedema in the hind paw of rats; type: in vivo; conditions: approximate ED25; rat, oral administration; read-out: Anti-inflammatory activity Carrageenin induced oedema ED25
Description: as §1, §2

[5] = system: gastric secretion in rats; test: gastric antisecretory activity, pylorus ligature technique (Shay method); type: in vivo; conditions: approximate ED50; rat, intraduodenal administration at the time of ligature, 4 hours
Experimental: Gastric antisecretory activity was evaluated in rats by the pylorus ligature technique. Six Sprague-Dawley male rats (110-130 g) were used for each group. Twenty-four hours before the test, the rats were deprived of food but their water supply was maintained. On the day of the operation, the pylorus was ligated under light ether anaesthesia. Each compound was injected intraduodenally (i.d.) at the time of the ligature. Four hours after the ligature the rats were sacrificed, the stomach secretion was collected and centrifuged at 3500 r.p.m. for 10 minutes, and the volume, less sediment, was determined.
The amount of the free hydrochloric acid in the gastric juice was determined by titration against 0.01 N sodium hydroxide to pH 7.0.

TXA2 synthetase = biological target: T1, TXA2 synthetase (Rattus norvegicus, UniProt P49430); test: TXA2 synthetase inhibition in vivo, TXB2 concentration in serum; conditions: single oral dose of 10 mg/kg, TXB2 in serum two hours after administration
T1 construct: determining the concentration of TXB2 in the serum of the animals killed two hours after the administration of the drug; from tissue; host or cells: living rat, serum sampled after oral dosing (endogenous enzyme)
T1 sequence (P49430 1-533): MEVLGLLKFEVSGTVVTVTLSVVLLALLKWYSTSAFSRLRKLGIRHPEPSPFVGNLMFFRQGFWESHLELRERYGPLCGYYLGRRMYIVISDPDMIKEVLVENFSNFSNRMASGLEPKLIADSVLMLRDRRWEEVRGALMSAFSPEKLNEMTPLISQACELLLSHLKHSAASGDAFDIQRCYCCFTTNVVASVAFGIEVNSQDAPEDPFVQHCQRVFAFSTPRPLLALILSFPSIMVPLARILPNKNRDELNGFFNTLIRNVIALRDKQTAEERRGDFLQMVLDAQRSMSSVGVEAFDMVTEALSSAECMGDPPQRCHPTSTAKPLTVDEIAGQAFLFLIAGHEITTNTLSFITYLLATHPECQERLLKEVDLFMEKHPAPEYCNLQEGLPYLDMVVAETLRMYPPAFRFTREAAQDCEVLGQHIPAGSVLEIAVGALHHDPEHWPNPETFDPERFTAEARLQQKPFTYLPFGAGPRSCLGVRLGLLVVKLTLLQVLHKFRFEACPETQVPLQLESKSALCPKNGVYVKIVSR
Experimental: The activity on the TXA2 synthetase was evaluated, e.g., in rat by administering the compounds at a single oral dose of 10 mg/kg and determining the concentration of TXB2 in the serum of the animals killed two hours after the administration of the drug.

Row | Structure (SMILES) | LD50 at 168 h [1] [mg/kg] | ED50 (restraint ulcers in rats) [mg/kg] | ED25 [2] [mg/kg] | ED25 [3] [mg/kg] | ED25 [4] [mg/kg] | ED50 [5] [mg/kg] | TXA2 synthetase inhibiting activity (TXA2 synthetase)
1 | O=c1cc(/C=C/c2cccnc2)nc2sc(Cl)cn12 [2-chloro-7-trans-[2-(3-pyridyl)-ethenyl]-5H-thiazolo[3,2-a]pyrimidine-5-one] | > 800 | 10 | ~25 | 25 | 16 |  | 
2 | COc1c(/C=C/c2cccnc2)nc2sccn2c1=O [6-methoxy-7-trans-[2-(3-pyridyl)-ethenyl]-5H-thiazolo[3,2-a]pyrimidine-5-one] |  |  |  |  | 15 | ~30 | 
3 | Cc1c(/C=C/c2cccnc2)nc2sccn2c1=O [6-methyl-7-trans-[2-(3-pyridyl)-ethenyl]-5H-thiazolo[3,2-a]pyrimidine-5-one] |  |  |  |  |  |  | having TXA2 synthetase inhibiting activity
4 | O=c1cc(/C=C/c2cccnc2)nc2sccn12 [7-trans-[2-(3-pyridyl)-ethenyl]-5H-thiazolo[3,2-a]pyrimidine-5-one] | > 800 | 9 |  |  | 6 |  | 
